Nine molecules from patent publication US20220000964A1, “Compositions and Methods for Regulating Homeostasis of Chondrocytes, Extracellular Matrix, Articular Cartilage, and Phenotype of Arthritis” (Unigen, Inc., priority 2020, published 2022) can be followed below.

One assay deals with Sprague Dawley rats. The assay can be described thus: Hot plate test, topical application, paw withdrawal latency. The format is in vivo, rat. The following applies: for Paw withdrawal threshold (latency) Mean ± SD: in s (unit assumed); for % Change: negative = increased paw withdrawal latency; for increase in paw withdrawal latency as compared to vehicle: 5% concentration. From the text:
Repeated application of anti-inflammatory compounds or extracts topically at the site of thermal contact (noxious stimulus) may cause desensitization of the peripheral afferent pain receptors to produce a delay in response time. A longer change in reaction time could be interpreted as an anti-nociceptive effect of the applied compound. To evaluate whether prepared plant extracts and compositions could provide anti-nociceptive activity, rats received orally-active anti-inflammatory extracts formulated in 2% Aloe vera gel at 5% concentration topically on their hind paws. The applied preparations on each paw were massaged at least 60 times in a circular motion into the skin until the applied content appeared visually absorbed. The procedure was repeated 3 times, every 30 minutes, before placing the animals on a preheated hot plate set to 53° C. The paw withdrawal latency was calculated as the time elapsed from the initial placement of the rat onto the hotplate to the withdrawal (or licking or shaking) of the hind paw in response to the thermal stimulus. Animals were immediately removed when this response was observed.
The anti-pain activity of medicinal plant extracts was tested on a hot plate set at 53° C. Test materials at 5% concentrations were topically applied at 20 μl/paw to the hind paws of both right and left paws of Sprague Dawley rats (n=10 per group). Applications of these extracts were carried out every 30 minutes for a total of 90 minutes. Within these 90 minutes, rats received a total of 60 μl/paw of the test article per rat. At 5% concentration, each rat received 3 mg/paw of the test articles. Due to the solubility characteristics of the compounds, two types of vehicles, V1=Dimethyl sulfoxide (DMSO)+propylene glycol (PG)+Aloe (2%), and V2=DMSO+OIL+PG, were used. Percent changes and P-values for statistical significance were determined using respective vehicles for each test material. The vehicle used for each material has been indicated in the parenthesis next to the test material. […] These increases in anti-pain activity were statistically significant. […] This percent change was statistically significant when compared to its respective vehicle.
For orientation: Hot-plate and tail-flick tests time the reaction to a heat stimulus.

For assay [1], the system named is rabbit cartilage explants. The assay can be described thus: Inhibition of glycosaminoglycan (GAG) release, rabbit cartilage explants stimulated with rhIL-1α. Format: cell-based. The note with it: for inhibition at 25 µg/mL: 25 μg/ml; for inhibition at 100 µg/mL: 100 μg/ml. Here is the method: Articular cartilage from hock joints of rabbits (2.5 kg body weight) was removed immediately after each animal was sacrificed. The articular cartilage explants were obtained by following the method described by Sandy et al, 1986. Briefly, after the articular surfaces were exposed surgically under sterile conditions, approximately 200-220 mg articular surfaces per joint were dissected and submerged into complete medium (DMEM, supplemented with heat inactivated 5% FBS; penicillin 100 U/ml; streptomycin 100 μg/ml). They were then rinsed several times with the complete medium and incubated for 2 days at 37° C. in a humidified 5% CO2/95% air incubator for stabilization. The complete medium was replaced with a basal medium (DMEM, supplemented with heat-inactivated 1% FBS, 10 mM HEPES, and penicillin 100 U/ml streptomycin 100 μg/ml). Approximately 30 mg cartilage pieces (2×3×0.35 mm/piece) were placed in 48-well plates and treated with given concentrations of test agents. After pretreatment for 1 h, 5 ng/ml of rhIL-1α was added to the culture medium and further incubated at 37° C. in a humidified 5% CO2/95% air incubator. The culture medium was collected 24 h later and stored at −80° C. until assay.
The amount of sulphated GAGs in the medium at the end of the reaction, reflecting the amount of articular cartilage degradation, was determined through 1,9-dimethy-methylene blue method using commercially available kit (the Blyscan proteoglycan and glycosaminoglycan assay) according to the instructions of the manufacturer. Diclofenac was utilized as a positive control at 300 μg/ml.
Dose curves of Alpinia, Pepper, Magnolia, and Kochia plant extracts were tested on the ex vivo glycosaminoglycan (GAG) release assay as illustrated in previous example to assess their cartilage protection effects. Cartilage explants were pre-treated with each extract before being exposed to IL-1α, which caused degradation and the release of GAGs from the cartilage matrix.

The test system of assay [2] is Carrageenan-induced paw edema in rats. The assay can be described thus: Carrageenan-induced paw edema in rats, paw edema (anti-inflammation). The format is in vivo, rat. As for the experimental part: (§1) Carrageenan-induced paw edema in rats was used to evaluate the anti-inflammatory and anti-pain activities of individual Alpinia, Pepper, Magnolia and Kochia extracts. Sprague Dawley (SD) rats (N=5 per group) were given Alpinia, Pepper, Magnolia and Kochia extracts at 300 mg/kg orally one hour […] intra-plantar injection of 100 μl carrageenan. Pain sensitivity and paw edema were monitored at T0 (before carrageenan) and 2, 4 and 6 hours after carrageenan. Ibuprofen as a positive control was used at 150 mg/kg.
(§2) Rats were gavaged with each constituent as they appeared in the 300 mg/kg of the AMK individually in order to determine whether the plant extracts acted synergistically. For the 2:4:3 ratio of AMK, rats were administered with 67 mg/kg of Alpinia extract, 133 mg/kg of Magnolia extract and 100 mg/kg of Kochia extract. The percent inhibition of pain and inflammation of the combined compositions at 300 mg/kg were compared with those dosages of individual extracts to find out potential additive, antagonistic or synergistic effects in combination using the Colby's equation.
(§3) The merit of combining Alpinia with Pepper for AP (1:2 ratio) was evaluated in the carrageenan rat paw edema model. Rats were gavaged with each constituent as they appeared in 300 mg/kg of the AP. For the 1:2 ratio of AP, 100 mg/kg of Alpinia and 200 mg/kg of Pepper extract were administered to the rats. The percent inhibition of pain and inflammation of the compositions at 300 mg/kg was compared with those dosages of individual extracts to find out potential additive, antagonistic or synergistic effects in combination using Colby's equation (Colby 1967). For the blending of these plant extracts to have unexpected synergy, the observed inhibition needed to be greater than the calculated value.
A general note: Carrageenan injected into the paw causes an acute inflammation.

Assay [3] has the same test system. The assay can be described thus: Carrageenan-induced paw edema in rats, pain sensitivity (anti-pain). Format: in vivo, rat. Here is the method: as §1, §2, §3
Setting [4] is: hot plate 53° C., topical, vehicle V1 (DMSO+PG+Aloe 2%), dose (%): Ibuprofen 5, Capsaicin 0.5, Diclofenac 1, others 5.
Where [5] appears, read: vs vehicle V1, dose (%): Ibuprofen 5, Capsaicin 0.5, Diclofenac 1, others 5.
The mark [6] stands for this setting: 100 mg/kg oral, 1 hr after treatment.
Setting [7] is: 100 mg/kg oral, 3 hr after treatment.
Where [8] appears, read: 100 mg/kg oral, 5 hr after treatment.
Setting [9] is: 150 mg/kg oral, 1 hr after treatment.
Where [10] appears, read: 150 mg/kg oral, 3 hr after treatment.
The mark [11] stands for this setting: 150 mg/kg oral, 5 hr after treatment.

Where “and” joins values, the source holds several entries; their conditions need not be identical. Equal values may be shown once.

Turning to `CC1CCC(C(C)C)C(O)C1` (stereo not drawn) [Menthol], the “Paw withdrawal threshold (latency) Mean ± SD” value in the assay with Sprague Dawley rats (setting [4]) was determined as 6.05 ± 1.70. Also, in the assay with Sprague Dawley rats (setting [5]), the “% Change” value amounted to 15.1%.

As a reminder, the inhibition is the change of the read-out against control, counted positive when it falls. Turning to `CC1(C)CCC2(C(=O)O)CCC3(C)C(=CCC4C5(C)CCC(OC6OC(C(=O)O)C(O)C(OC7OCC(O)C(O)C7O)C6O)C(C)(C)C5CCC43C)C2C1` (stereo not drawn) [Momordin lc], in assay [1] (Oryctolagus cuniculus), the inhibition at 25 µg/mL stood at 84% and the inhibition at 100 µg/mL is 83%.

Piperine: in the assay on Sprague Dawley rats (hot plate 53° C., topical, vehicle V2 (DMSO+OIL+PG), run 1, dose 5%), the “Paw withdrawal threshold (latency) Mean ± SD” value turned out to be 7.97 ± 1.86. Also, in the assay with Sprague Dawley rats (topical, hot plate 53° C.), the “increase in paw withdrawal latency as compared to vehicle” value was 32.6%. Moreover, the “% Change” value with Sprague Dawley rats (vs vehicle V2 run 1, dose 5%) was −32.6%. The “Inhibition of GAG release” value in assay [1] (50 μg/ml) is on record as 98%.

With `CC(=O)OC/C=C/c1ccc(OC(C)=O)cc1` [p-coumaryl diacetate], in assay [1] (Oryctolagus cuniculus), the inhibition at 25 µg/mL was determined as 111% and the inhibition at 100 µg/mL was 138%.

For the molecule `CC(C)Cc1ccc(C(C)C(=O)O)cc1` (stereo not drawn) [Ibuprofen], the “Paw withdrawal threshold (latency) Mean ± SD” value in the assay on Sprague Dawley rats (setting [4]) came to 8.73 ± 1.37; in the assay on Sprague Dawley rats (hot plate 53° C., topical, vehicle V2 (DMSO+OIL+PG), run 2, dose 5%), 6.05 ± 1.98. Moreover, the “increase in paw withdrawal latency as compared to vehicle” value in the assay on Sprague Dawley rats (topical, hot plate 53° C.) was found to be 22.4%. Moreover, the “% Change” value in the assay on Sprague Dawley rats (setting [5]) is recorded as −22.4%; in the assay on Sprague Dawley rats (vs vehicle V2 run 2, dose 5%), −23.98%. Further, the “Anti-inflammation Percent change vs vehicle” value is 50.07% and 45.00% and 51.0% in assay [2] (setting [6]); 47.40% and 50.31% and 48.0% in assay [2] (setting [7]); 37.28% and 41.84% and 39.0% in assay [2] (setting [8]); 43.03% and 49.50% and 47.3% in assay [2] (setting [9]); 48.38% and 48.62% and 49.7% in assay [2] (setting [10]); 36.79% and 37.66% and 37.6% in assay [2] (setting [11]). Besides, the “Paw edema, Average” value came out at 1.43 in assay [2] (150 mg/kg oral, 1 hr); 1.59 in assay [2] (150 mg/kg oral, 3 hr); 1.77 in assay [2] (150 mg/kg oral, 5 hr). Also, the “Anti-pain Percent change vs vehicle” value in assay [3] (setting [6]) was 50.51% and 48.44% and 50.5%; in assay [3] (setting [7]), 46.37% and 47.46% and 46.1%; in assay [3] (setting [8]), 37.42% and 37.77% and 38.5%; in assay [3] (setting [9]), 46.49% and 50.51% and 44.4%; in assay [3] (setting [10]), 45.85% and 46.37% and 47.9%; in assay [3] (setting [11]) it was 33.55% and 37.42% and 30.8%. Also, the “Pain sensitivity, Average” value in assay [3] (150 mg/kg oral, 1 hr) is 25.02; in assay [3] (150 mg/kg oral, 3 hr), 35.67; in assay [3] (150 mg/kg oral, 5 hr), 45.49.

`C=CCc1ccc(O)c(-c2ccc(O)c(CC=C)c2)c1` [Honokiol]: the inhibition at 10 µg/mL in assay [1] (Oryctolagus cuniculus, 10 μg/ml) was 104%. Besides, the inhibition at 50 µg/mL in assay [1] (Oryctolagus cuniculus, 50 μg/ml) worked out at 119%.

As to `C=CCc1ccc(O)c(-c2cc(CC=C)ccc2O)c1` [Magnolol], the “Inhibition of GAG release” value in assay [1] (10 μg/ml) and in assay [1] (50 μg/ml) was 97% throughout.

Take `COc1cc(CNC(=O)CCCC/C=C/C(C)C)ccc1O` [Capsaicin]: in the assay with Sprague Dawley rats (setting [4]), the “Paw withdrawal threshold (latency) Mean ± SD” value is given as 4.51 ± 1.12. Further, the “decrease in paw withdrawal latency compared to vehicle” value in the assay on Sprague Dawley rats (topical, hot plate 53° C.) stood at 36.7%. In the assay on Sprague Dawley rats (setting [5]), the “% Change” value was determined as 36.7%.

Consider `C=C[C@H](OC(C)=O)c1ccc(OC(C)=O)cc1` [1′-acetoxychavicol acetate], for which, in assay [1] (Oryctolagus cuniculus), the inhibition at 25 µg/mL worked out at 99% and the inhibition at 100 µg/mL stood at 109%.
